Reference: patent US12371454B2, “Cyclic peptide compound having Kras inhibitory action” (priority 2019, dated 2025)
pIC50: −log10 of the molar value. Starred links: 1 amine or outer side, 2 acyl side, 3 side chain; linkers in the order of their positions; H or OH if unused. Positions of bridges follow the written chain, without caps; N, C: chain ends. Non-standard residues stand in square brackets, D forms with d. Residues, ends and D or L forms follow the SMILES beside them. *: point of attachment. hPhe(3-Cl-4-CF3) = N[C@@H](CCc1ccc(C(F)(F)F)c(Cl)c1)C(=O)O; X38 = CN([C@@H](Cc1cccc(OC(F)(F)F)c1)C(=O)[*:2])[*:1]; NMePhe(4-CF3) = CN[C@@H](Cc1ccc(C(F)(F)F)cc1)C(=O)O; X23 = CN([C@@H](Cc1ccccc1OC(F)(F)F)C(=O)[*:2])[*:1]; NMePhe(3-Br) = CN[C@@H](Cc1cccc(Br)c1)C(=O)O; NMePhe(4-Br) = CN[C@@H](Cc1ccc(Br)cc1)C(=O)O; NMePhe(3-Me) = CN[C@@H](Cc1cccc(C)c1)C(=O)O; NMePhe(4-Me) = CN[C@@H](Cc1ccc(C)cc1)C(=O)O; NMePhe(2-Cl) = CN[C@@H](Cc1ccccc1Cl)C(=O)O; NMePhe(4-F) = CN[C@@H](Cc1ccc(F)cc1)C(=O)O; NMedβ3hAla = C[C@H](CC(=O)[*:2])N(C)[*:1]; NMehPhe = CN[C@@H](CCc1ccccc1)C(=O)O; NMeY = CN[C@@H](Cc1ccc(O)cc1)C(=O)O; NMeCha = CN[C@@H](CC1CCCCC1)C(=O)O; NMeChg = CN[C@H](C(=O)O)C1CCCCC1; NMeD = CN[C@@H](CC(=O)O)C(=O)O; NMeL = CN[C@@H](CC(C)C)C(=O)O; NMeV = CN[C@H](C(=O)O)C(C)C; d(β3hA) = C[C@@H](N)CC(=O)O; NMeA = CN[C@@H](C)C(=O)O; Piperidide = C1CCN(*)CC1; Pyrrolidide = C1CCN(*)C1; Ac5c = NC1(C(=O)O)CCCC1; Aze = O=C(O)[C@@H]1CCN1; CF3 = FC(F)(F)*; Sar = CNCC(=O)O

Assays:
[1] = target: T1, Kras and SOS1 (biotin-tagged human Kras loaded with GDP, His-tagged human SOS1) (Homo sapiens, UniProt P01116, G12D); assay: Protein-protein interaction inhibition between Kras and SOS1 (KrasGl2D-SOS PPI) using AlphaScreen; format: binding; conditions: AlphaScreen; biotin-tagged human Kras loaded with GDP, His-tagged human SOS1; read-out: KRAS G12D-SOS PPI IC50
T1 construct: made in house; host or cells: E. coli (stated for Kras only)
T1 sequence (P01116 1-188 isoform P01116-2 G12D): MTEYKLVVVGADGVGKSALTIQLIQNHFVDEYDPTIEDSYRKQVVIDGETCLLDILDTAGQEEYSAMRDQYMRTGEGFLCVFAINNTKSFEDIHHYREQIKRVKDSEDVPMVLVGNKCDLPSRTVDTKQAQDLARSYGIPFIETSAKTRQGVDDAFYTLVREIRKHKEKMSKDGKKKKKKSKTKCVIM
How it was run: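 AlphaScreen format: Ni donor beads capture His-SOS1, streptavidin acceptor beads capture biotinylated Kras (E. coli-expressed, GDP-loaded post-purification). Excite 680 nm, read 520-620 nm.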

[2] = tested on: Human pancreatic cancer cell line AsPC-1; assay: Measurement of AsPC-1 cell growth inhibition (AsPC-1 CGI); format: cell-based; conditions: 96 h
How it was run: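 AsPC-1 cells in 15% FBS RPMI-1640 were exposed to test compound for 96 hours at 37° C, with CellTiter-Glo as endpoint.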

SMILES | pIC50 [1] | pIC50 [2]
CC[C@H](C)[C@@H]1NC(=O)[C@H](CC(C)C)N(C)C(=O)C[C@@H](C)NC(=O)[C@H](C(C)C)N(C)C(=O)C2(CCCC2)NC(=O)[C@@H]2CCCN2C(=O)[C@H](CCc2ccc(C(F)(F)F)c(Cl)c2)NC(=O)CN(C)C(=O)[C@H](Cc2ccc(Br)cc2)N(C)C(=O)CN(C)C(=O)CN(C)C1=O [Compound 1625] (cyclo([Ac5c][NMeV][d(β3hA)][NMeL]I[Sar][Sar][NMePhe(4-Br)][Sar][hPhe(3-Cl-4-CF3)]P)) | 8.14 | 6.30 to 7.00
CC[C@H](C)[C@@H]1NC(=O)[C@H](CC(C)C)N(C)C(=O)C[C@@H](C(=O)N2CCCCC2)N(C)C(=O)[C@H](C(C)C)N(C)C(=O)C2(CCCC2)NC(=O)[C@@H]2CCCN2C(=O)[C@H](CCc2ccc(C(F)(F)F)c(Cl)c2)NC(=O)CN(C)C(=O)[C@H](Cc2cccc(C)c2)N(C)C(=O)CN(C)C(=O)CN(C)C1=O [Compound 1626] ([NMeL]I[Sar][Sar][NMePhe(3-Me)][Sar][hPhe(3-Cl-4-CF3)]P[Ac5c][NMeV][NMeD]-Piperidide; lactam N-11) | 8.36 | 6.30 to 7.00
CC[C@H](C)[C@@H]1NC(=O)[C@H](CC(C)C)N(C)C(=O)C[C@@H](C(=O)N2CCCCC2)N(C)C(=O)[C@H](C(C)C)N(C)C(=O)C2(CCCC2)NC(=O)[C@@H]2CCCN2C(=O)[C@H](CCc2ccc(C(F)(F)F)c(Cl)c2)NC(=O)CN(C)C(=O)[C@H](Cc2ccc(C(F)(F)F)cc2)N(C)C(=O)CN(C)C(=O)CN(C)C1=O [Compound 1629] ([NMeL]I[Sar][Sar][NMePhe(4-CF3)][Sar][hPhe(3-Cl-4-CF3)]P[Ac5c][NMeV][NMeD]-Piperidide; lactam N-11) | 8.60 | 7.00 to 7.30
CC[C@H](C)[C@@H]1NC(=O)[C@H](CC(C)C)N(C)C(=O)C[C@@H](C(=O)N2CCCCC2)N(C)C(=O)[C@H](C(C)C)N(C)C(=O)C2(CCCC2)NC(=O)[C@@H]2CCCN2C(=O)[C@H](CCc2ccc(C(F)(F)F)c(Cl)c2)NC(=O)CN(C)C(=O)[C@H](Cc2ccc(OC(F)(F)F)cc2)N(C)C(=O)CN(C)C(=O)CN(C)C1=O [Compound 1630] ([NMeL]I[Sar][Sar][NMeY](CF3)[Sar][hPhe(3-Cl-4-CF3)]P[Ac5c][NMeV][NMeD]-Piperidide; lactam N-11) | 8.21 | 6.30 to 7.00
CC[C@H](C)[C@@H]1NC(=O)[C@H](CC(C)C)N(C)C(=O)C[C@@H](C(=O)N2CCCCC2)N(C)C(=O)[C@H](C(C)C)N(C)C(=O)C2(CCCC2)NC(=O)[C@@H]2CCCN2C(=O)[C@H](CCc2ccc(C(F)(F)F)c(Cl)c2)NC(=O)CN(C)C(=O)[C@H](Cc2ccc(F)cc2)N(C)C(=O)CN(C)C(=O)CN(C)C1=O [Compound 1631] ([NMeL]I[Sar][Sar][NMePhe(4-F)][Sar][hPhe(3-Cl-4-CF3)]P[Ac5c][NMeV][NMeD]-Piperidide; lactam N-11) | 8.30 | 6.30 to 7.00
CC[C@H](C)[C@@H]1NC(=O)[C@H](CC(C)C)N(C)C(=O)C[C@@H](C)NC(=O)[C@H](C(C)C)N(C)C(=O)C2(CCCC2)NC(=O)[C@@H]2CCCN2C(=O)[C@H](CCc2ccc(C(F)(F)F)c(Cl)c2)NC(=O)CN(C)C(=O)[C@H](Cc2ccc(C)cc2)N(C)C(=O)CN(C)C(=O)CN(C)C1=O [Compound 1632] (cyclo([Ac5c][NMeV][d(β3hA)][NMeL]I[Sar][Sar][NMePhe(4-Me)][Sar][hPhe(3-Cl-4-CF3)]P)) | 8.54 | 6.30 to 7.00
CC[C@H](C)[C@@H]1NC(=O)[C@H](CC(C)C)N(C)C(=O)C[C@@H](C)N(C)C(=O)[C@H](C(C)C)N(C)C(=O)C2(CCCC2)NC(=O)[C@@H]2CCCN2C(=O)[C@H](CCc2ccc(C(F)(F)F)c(Cl)c2)NC(=O)CN(C)C(=O)[C@H](Cc2ccccc2OC(F)(F)F)N(C)C(=O)CN(C)C(=O)CN(C)C1=O [Compound 1633] (cyclo([Ac5c][NMeV][NMedβ3hAla][NMeL]I[Sar][Sar][X23][Sar][hPhe(3-Cl-4-CF3)]P)) | 7.30 | 6.30 to 7.00
CC[C@H](C)[C@@H]1NC(=O)[C@H](CC(C)C)N(C)C(=O)C[C@@H](C)N(C)C(=O)[C@H](C(C)C)N(C)C(=O)C2(CCCC2)NC(=O)[C@@H]2CCCN2C(=O)[C@H](CCc2ccc(C(F)(F)F)c(Cl)c2)NC(=O)CN(C)C(=O)[C@H](CCc2ccccc2)N(C)C(=O)CN(C)C(=O)CN(C)C1=O [Compound 1634] (cyclo([Ac5c][NMeV][NMedβ3hAla][NMeL]I[Sar][Sar][NMehPhe][Sar][hPhe(3-Cl-4-CF3)]P)) | 7.89 | 7.00 to 7.30
CC[C@H](C)[C@@H]1NC(=O)[C@H](CC(C)C)N(C)C(=O)C[C@@H](C(=O)N2CCCCC2)N(C)C(=O)[C@H](C(C)C)N(C)C(=O)C2(CCCC2)NC(=O)[C@@H]2CCCN2C(=O)[C@H](CCc2ccc(C(F)(F)F)c(Cl)c2)NC(=O)CN(C)C(=O)[C@H](Cc2ccccc2Cl)N(C)C(=O)CN(C)C(=O)CN(C)C1=O [Compound 1636] ([NMeL]I[Sar][Sar][NMePhe(2-Cl)][Sar][hPhe(3-Cl-4-CF3)]P[Ac5c][NMeV][NMeD]-Piperidide; lactam N-11) | 7.96 | 6.30 to 7.00
CC[C@H](C)[C@@H]1NC(=O)[C@H](CC(C)C)N(C)C(=O)C[C@@H](C)N(C)C(=O)[C@H](C(C)C)N(C)C(=O)C2(CCCC2)NC(=O)[C@@H]2CCCN2C(=O)[C@H](CCc2ccc(C(F)(F)F)c(Cl)c2)NC(=O)CN(C)C(=O)[C@H](Cc2cccc(OC(F)(F)F)c2)N(C)C(=O)CN(C)C(=O)CN(C)C1=O [Compound 1637] (cyclo([Ac5c][NMeV][NMedβ3hAla][NMeL]I[Sar][Sar][X38][Sar][hPhe(3-Cl-4-CF3)]P)) | 7.77 | 7.00 to 7.30
CC[C@H](C)[C@@H]1NC(=O)[C@H](CC(C)C)N(C)C(=O)C[C@@H](C(=O)N2CCCCC2)N(C)C(=O)[C@H](C(C)C)N(C)C(=O)C2(CCCC2)NC(=O)[C@@H]2CCCN2C(=O)[C@H](CCc2ccc(C(F)(F)F)c(Cl)c2)NC(=O)CN(C)C(=O)[C@H](Cc2cccc(OC(F)(F)F)c2)N(C)C(=O)CN(C)C(=O)CN(C)C1=O [Compound 1640] ([NMeL]I[Sar][Sar][X38][Sar][hPhe(3-Cl-4-CF3)]P[Ac5c][NMeV][NMeD]-Piperidide; lactam N-11) | 8.18 | 6.30 to 7.00
CC[C@H](C)[C@@H]1NC(=O)[C@H](CC(C)C)N(C)C(=O)C[C@@H](C(=O)N2CCCCC2)N(C)C(=O)[C@H](C(C)C)N(C)C(=O)C2(CCCC2)NC(=O)[C@@H]2CCCN2C(=O)[C@H](CCc2ccc(C(F)(F)F)c(Cl)c2)NC(=O)CN(C)C(=O)[C@H](Cc2ccccc2OC(F)(F)F)N(C)C(=O)CN(C)C(=O)CN(C)C1=O [Compound 1641] ([NMeL]I[Sar][Sar][X23][Sar][hPhe(3-Cl-4-CF3)]P[Ac5c][NMeV][NMeD]-Piperidide; lactam N-11) | 8.08 | 6.30 to 7.00
CC[C@H](C)[C@@H]1NC(=O)[C@H](CC(C)C)N(C)C(=O)C[C@@H](C(=O)N2CCCCC2)N(C)C(=O)[C@H](C(C)C)N(C)C(=O)C2(CCCC2)NC(=O)[C@@H]2CCCN2C(=O)[C@H](CCc2ccc(C(F)(F)F)c(Cl)c2)NC(=O)CN(C)C(=O)[C@H](Cc2cccc(Br)c2)N(C)C(=O)CN(C)C(=O)CN(C)C1=O [Compound 1643] ([NMeL]I[Sar][Sar][NMePhe(3-Br)][Sar][hPhe(3-Cl-4-CF3)]P[Ac5c][NMeV][NMeD]-Piperidide; lactam N-11) | 8.14 | 6.30 to 7.00
CC(C)C[C@@H]1NC(=O)[C@H](CC(C)C)N(C)C(=O)C[C@@H](C(=O)N2CCCCC2)N(C)C(=O)[C@H](C2CCCCC2)N(C)C(=O)C2(CCCC2)NC(=O)[C@@H]2CCCN2C(=O)[C@H](CCc2ccc(C(F)(F)F)c(Cl)c2)NC(=O)CN(C)C(=O)[C@H](CC2CCCCC2)N(C)C(=O)CN(C)C(=O)CN(C)C1=O [Compound 1650] ([NMeL]L[Sar][Sar][NMeCha][Sar][hPhe(3-Cl-4-CF3)]P[Ac5c][NMeChg][NMeD]-Piperidide; lactam N-11) | 8.59 | 6.30 to 7.00
CC[C@H](C)[C@@H]1NC(=O)[C@H](CC(C)C)N(C)C(=O)C[C@@H](C(=O)N2CCCCC2)N(C)C(=O)[C@H](C2CCCCC2)N(C)C(=O)C2(CCCC2)NC(=O)[C@@H]2CCCN2C(=O)[C@H](CCc2ccc(C(F)(F)F)c(Cl)c2)NC(=O)CN(C)C(=O)[C@H](CC(C)C)N(C)C(=O)CN(C)C(=O)CN(C)C1=O [Compound 1652] ([NMeL]I[Sar][Sar][NMeL][Sar][hPhe(3-Cl-4-CF3)]P[Ac5c][NMeChg][NMeD]-Piperidide; lactam N-11) | 8.51 | 6.30 to 7.00
CC[C@H](C)[C@@H]1NC(=O)[C@H](CC(C)C)N(C)C(=O)C[C@@H](C(=O)N2CCCC2)N(C)C(=O)[C@H](C(C)C)N(C)C(=O)C2(CCCC2)NC(=O)[C@@H]2CCCN2C(=O)[C@H](CCc2ccc(C(F)(F)F)c(Cl)c2)NC(=O)CN(C)C(=O)[C@H](CC2CCCCC2)N(C)C(=O)[C@@H]2CCN2C(=O)[C@H](C)N(C)C1=O [Compound 1656] ([NMeL]I[NMeA][Aze][NMeCha][Sar][hPhe(3-Cl-4-CF3)]P[Ac5c][NMeV][NMeD]-Pyrrolidide; lactam N-11) | 8.85 | 6.30 to 7.00
CC[C@H](C)[C@@H]1NC(=O)[C@H](CC(C)C)N(C)C(=O)C[C@@H](C(=O)N2CCCC2)N(C)C(=O)[C@H](C2CCCCC2)N(C)C(=O)C2(CCCC2)NC(=O)[C@@H]2CCCN2C(=O)[C@H](CCc2ccc(C(F)(F)F)c(Cl)c2)NC(=O)CN(C)C(=O)[C@H](Cc2ccc(C)cc2)N(C)C(=O)CN(C)C(=O)CN(C)C1=O [Compound 1658] ([NMeL]I[Sar][Sar][NMePhe(4-Me)][Sar][hPhe(3-Cl-4-CF3)]P[Ac5c][NMeChg][NMeD]-Pyrrolidide; lactam N-11) | 9.26 | 7.30 to 7.70
